Reference: patent US20240197874A1, “MATERIALS AND METHODS FOR IMPROVING EFFICACY OF ADOPTIVE IMMUNE CELL THERAPY” (priority 2021, published 2024)

What was measured:
mTORC1 [1] = test: Endosome isolation and in vitro mTORC1 kinase activity assay toward S6K1; assay type: biochemical, human; conditions: cells pre-treated 2 hours with 1 μM inhibitor; day 3
Naïve CD4 T cells [2] = test: Percentage of live cells (Annexin V negative) of activated naïve CD4 T cells with increasing inhibitor doses; assay type: cell-based, human; conditions: for toxicity of doses used for lysosome inhibition: chloroquine 20 μM, Bafilomycin A1 10 nM
Experimental: FIGS. 2A-2H. Naïve CD4 T cells from old adults lose lysosomal function but maintain mTORC1 activity after activation on day 5. (FIG. 2A and FIG. 2B) Naïve CD4 T cells from young and old individuals were activated with anti-CD3/anti-CD28 beads for 5 days followed by DQBSA treatments for 6 hours. Fluorescence of cleaved DQ-BSA was analyzed by flow cytometry to determine lysosome activities (FIG. 2A). Phospho-S6K1 (Thr389) protein expression (right) was determined by Western blotting (FIG. 2B). (FIG. 2C) Naïve CD4 T cells were activated for 5 days in the presence of increasing doses of chloroquine (CQ), bafilomycin A1 (BafA1) or JPH203. The percentage of live cells was determined as the frequency of Annexin V negative population. Mean+SD of four experiments. (FIGS. 2D-2G) Naïve CD4 T cells were activated for 5 days with the last 2-day culture with vehicle, chloroquine (CQ) or bafilomycin A1 (BafA1). Alternatively, cells were transfected with control or TFEB siRNA and activated for 5 days. (FIG. 2D) Lysosomal activities were determined as in (FIG. 2A). (FIG. 2E) mTORC1 activity was determined as in (FIG. 2B). (FIG. 2F) TFEB protein silencing were confirmed by Western blotting on day 5 after activation. (FIG. 2G) AKT phosphorylation was determined by Western blotting on day 5 after activation. **p<0.01; NS, not significant. (FIG. 2H) Naïve CD4 T cells from three old individuals were activated and treated with CQ as in (FIG. 2D). SLC7A5 and c-MYC protein expression were determined. Comparison by two-tailed paired t test. *p<0.05, **p<0.01; NS, not significant.
Isolated human naïve CD4 T cells were activated with Dynabeads Human T-Activator CD3/CD28 (11132D, Thermo Fisher Scientific) in RPMI 1640 (Sigma) supplemented with 10% fetal bovine serum (FBS) and 100 U/mL penicillin and streptomycin (Thermo Fisher Scientific). Mouse T cells were activated in plates coated with 8 μg/mL anti-CD3 Ab (16-0032-82, eBioscience) and 8 μg/mL anti-CD28 Ab (16-0281-82, eBioscience) in culture medium supplemented with 10 ng/ml IL-2 (21212, Peprotech). […]

mTORC1 [3] = assay type: cell-based, human; conditions: for S6K1 phosphorylation (mTORC1 activity) under lysosome inhibition: young individuals, day 5, last 2 days with inhibitor
Naïve CD4 T cells [4] = test: DQ-BSA lysosomal activity assay in activated naïve CD4 T cells; assay type: cell-based, human
Experimental: Cells were treated with 5 μg/mL of DQ-BSA (D12050, Thermo Fisher Scientific) diluted in prewarmed medium and incubated at 37° ° C. for 6 hours. Cells were then briefly washed once with ice-cold PBS containing 2% FBS and kept on ice. Fluorescence of cleaved BSA-DQ was analyzed by flow cytometry.

[5] = system: lysosomal cathepsin genes (CTSB, CTSD, CTSH and CTSS); test: Lysosomal cathepsin gene expression by qRT-PCR; assay type: cell-based, human
Experimental: FIGS. 6A-6F. Sustained activation of late endosomal mTORC1 suppresses lysosomal activities in naïve CD4 T cell responses. (FIGS. 6A-6F) Naïve CD4 T cells from young (Y) and old (O) individuals were activated for 5 days. Indicated inhibitor or vehicle control was added for the last 2 days of culture (FIGS. 6A-6B and FIGS. 6E-6F). Alternatively, cells were transfected with control or VPS39 siRNA and then activated with anti-CD3/anti-CD28 beads for 5 days (FIGS. 6C-6D). (FIG. 6A, FIG. 6C, FIG. 6E, and FIG. 6F) Lysosomal cathepsins expressions were determined by qRT-PCR (left); results are normalized to control samples using 18S rRNA as internal control; mean+SD of four experiments; comparison by two-tailed paired t-test. Lysosomal activities were determined by flow cytometry-based analysis of cells treated with 5 μg/mL of DQ-BSA for 6 hours. Results are shown as representative histograms (middle) and cumulative data from four experiments (right, two-tailed paired t-test). The gray histogram represents DQ-BSA free samples. […]
Total RNA was isolated using the RNeasy Plus Mini Kit (74134, QIAGEN) and converted to cDNA using the SuperScript VILO cDNA Synthesis Kit (11754, Invitrogen). Quantitative RT-PCR was performed on the ABI 7900HT system (Applied Biosystems) using Power SYBR Green PCR Master Mix (4368706, Thermo Fisher Scientific), according to the manufacturer's instructions.

PD-1 = assay type: cell-based, human; conditions: T cells from old adults; day 5
[6] = young individuals, day 5, last 2 days with inhibitor
[7] = CQ and JPH203-cotreated young cells vs CQ alone
[8] = day 5-activated T cells from old adults

Cl.Cl.NC1(c2ccc(-c3nc4ccn5c(=O)[nH]nc5c4cc3-c3ccccc3)cc2)CCC1 [AKT inhibitor, MK-2206 2HCl]
mTORC1 kinase activity of endosome isolates toward the substrate S6K1 (mTORC1 [1]): not seen

CO/C1=C\C(C)=C\[C@@H](C)[C@@H](O)[C@@H](C)C/C(C)=C/C=C/[C@H](OC)[C@@H]([C@@H](C)[C@@H](O)[C@H](C)[C@@]2(O)C[C@@H](O)[C@H](C)[C@@H](C(C)C)O2)OC1=O [Bafilomycin A1]
toxicity of doses used for lysosome inhibition (Naïve CD4 T cells [2]): nontoxic
S6K1 phosphorylation (mTORC1 activity) under lysosome inhibition (mTORC1 [3]): neither reduced S6K1
lysosomal activities (Naïve CD4 T cells [4]; [6]): reduced lysosomal activities

Nc1cc(COc2c(Cl)cc(C[C@H](N)C(=O)O)cc2Cl)c2oc(-c3ccccc3)nc2c1 [JPH203]
cytotoxicity (percentage of live cells, Annexin V negative) (Naïve CD4 T cells [2]; 5 μM, titration experiments, activated naïve CD4 T cells): not cytotoxic
inhibition of mTORC1 activity (mTORC1 [3]; 5 μM, phosphorylation of S6RP, titration experiments): about 50%
mTORC1 activity on day 3 (mTORC1 [3]; day 3 after activation, young and old cells, 5 μM): reduced mTORC1 activity in both young and old cells
excess mTORC1 activity on day 5 in old activated T cells (mTORC1 [3]; day 5, old adults, inhibitor for last 2 days, 5 μM): sensitive to SLC7A5 inhibition
lysosomal activities (Naïve CD4 T cells [4]; [7]): increased
lysosomal cathepsins [5, 7]: increased

CCC(=O)N1CCN(c2ccc(-n3c(=O)ccc4cnc5ccc(-c6cnc7ccccc7c6)cc5c43)cc2C(F)(F)F)CC1 [Torin 1]
lysosomal proteolytic activities (Naïve CD4 T cells [4]; [8]): partially restored
TFEB-dependent transcription of lysosomal cathepsin genes [5, 8]: partially restored
cell surface protein expression of PD-1 (PD-1): reduced cell surface protein expression
transcripts of PD-1 (PD-1): without effects on transcripts

CCN(CC)CCCC(C)Nc1ccnc2cc(Cl)ccc12 (centres unmarked) [chloroquine, Chloroquine]
toxicity of doses used for lysosome inhibition (Naïve CD4 T cells [2]): nontoxic
S6K1 phosphorylation (mTORC1 activity) under lysosome inhibition (mTORC1 [3]): neither reduced S6K1
lysosomal activities (Naïve CD4 T cells [4]; [6]): reduced lysosomal activities
